Results: patent US20220054532A1, “VETERINARY COMPOSITIONS AND METHODS OF USE THEREFOR” (priority 2019, published 2022)

Experiments:
Assay type in all cases: in vivo
[1] = system: dogs suffering behavior aberrations and/or anxiety; experiment: Example 5: behavior aberrations and anxiety, C-BARQ (canine); conditions: C-BARQ day 0 vs 60, SID, 0 (no improvement) to 3 (marked improvement)
Excerpt: (§1) This example examines the ability of embodiments of the invention versus Clomicalm® to reduce behavior aberrations and anxiety.
(§2) The first patient group is twenty dogs suffering behavior aberrations and/or anxiety, as determined by the canine behavioral assessment and research questionnaire (“C-BARQ”). See, e.g., P. Wiener et al., Use of questionnaire-based data to assess dog personality, 16 JOURNAL OF VETERINARY BEHAVIOR 81-85 (2016). The second patient group is twenty cats suffering behavior aberrations and/or anxiety, as determined by the feline behavioral assessment and research questionnaire (“Fe-BARQ”).
(§3) Each group is broken into five groups of four animals. The first group receives Clomicalm® as the sole active agent; the second group receives a composition comprising HMW HA as the sole active agent; the third group receives a composition comprising CBD as the sole active agent; the fourth group receives a composition comprising HMW HA and CBD as the active agents; and the fifth group receives a composition comprising HMW HA, CBD, valerian root, and scutillaria as the active agents.
(§4) Each composition is administered for a period of sixty (60) days, once a day (“SID”). Owners complete the species-appropriate C-BARQ or Fe-BARQ on days 0 and 60 of treatment. The results from the overall questionnaire are averaged and characterized as no improvement (score of 0), mild improvement (score of 1), moderate improvement (score of 2), or marked improvement (score of 3).
The following canine scores are observed and the results depicted in FIG. 5a: […]

[2] = system: cats suffering behavior aberrations and/or anxiety; experiment: Example 5: behavior aberrations and anxiety, Fe-BARQ (feline); conditions: Fe-BARQ day 0 vs 60, SID, 0 (no improvement) to 3 (marked improvement)
Excerpt: as §1, §2, §3, §4
The following feline scores are observed and the results depicted in FIG. 5b: […]

[3] = system: dogs suffering from seizures; experiment: Example 6: seizures in dogs; conditions: seizure scale 1 (seizure-free) to 10 (daily or multiple seizures)
Excerpt: (§5) This example examines the ability of embodiments of the invention versus phenobarbital to treat seizures.
(§6) The patient group is twenty-four dogs suffering from seizures as diagnosed by their referring veterinarian. The patient group is broken into six groups of four animals. The first group receives phenobarbital as the sole active agent; the second group receives a composition comprising phenobarbital and Keppra®; the third group receives a composition comprising HMW HA as the sole active agent; the fourth group receives a composition comprising CBD as the sole active agent; the fifth group receives a composition comprising HMW HA and CBD as the active agents; and the sixth group receives a composition comprising HMW HA, CBD, valerian root, and scutillaria as the active agents.
(§7) Each composition is administered for a period of sixty (60) days, BID. Each dog is evaluated on days 0 (“Initial Score”), 15, 30, 45, and 60 (“Final Score”) of treatment. The results are averaged and characterized on a scale of 1 (seizure-free) to 10 (daily seizures or multiple seizures during the event).
The following canine scores are observed and the results depicted in FIG. 6: […]

[4] = system: dogs suffering from seizures; experiment: Example 14: seizures in dogs (CBD Complex); conditions: seizure scale 1 (seizure-free) to 10 (daily or multiple seizures)
Excerpt: as §5
as §6, with “and CBD Complex as the” for “and CBD as the”, “HMW HA, CBD Complex, valerian root,” for “HMW HA, CBD, valerian root,”
as §7
The following canine scores are observed and the results depicted in FIG. 14: […]

| SMILES | Improvement Score [1] | Improvement Score [2] | Initial Score ([3]; day 0) | Final Score ([3]; day 60, BID) | Initial Score ([4]; day 0) | Final Score ([4]; day 60, BID) |
| --- | --- | --- | --- | --- | --- | --- |
| CN(C)CCCN1c2ccccc2CCc2ccc(Cl)cc21 [Clomicalm ®] | .5 | .4 | – | – | – | – |
| CCC1(c2ccccc2)C(=O)NC(=O)NC1=O [Phenobarbital] | – | – | 9 | 8 | 9 | 8 |
